HELM strings list units from the 5' end as sugar, base in round brackets, then linkage (d deoxyribose, r ribose, m 2'-O-methyl, p phosphodiester). Strings are as the collection lists them; they lack the last nucleoside at the 3' end of the tested compound. [moe] = 2'-O-(2-methoxyethyl) (MOE); [sp] = phosphorothioate linkage; [m5C] = 5-methylcytosine

This series has as its target SCN2A. Description: mouse, dose not given. Conditions: ASO.
Regarding “RNA1{[moe]([m5C])[sp].[moe](T)p.[moe](G)p.[moe](G)p.[moe]([m5C])p.d(T)[sp].d(A)[sp].d(T)[sp].d(A)[sp].d([m5C])[sp].d(T)[sp].d([m5C])[sp].d(A)[sp].d(T)[sp].d(T)[sp].[moe](G)p.[moe]([m5C])p.[moe](T)[sp].[moe]([m5C])}$$$$ (last 3' nucleoside missing)”, the 3 h FOB score is 0.67 score 0-7.
As for “RNA1{[moe]([m5C])[sp].[moe]([m5C])p.[moe](A)p.[moe]([m5C])p.[moe](G)p.d([m5C])[sp].d(T)[sp].d(T)[sp].d(A)[sp].d([m5C])[sp].d(A)[sp].d(T)[sp].d([m5C])[sp].d(A)[sp].d(A)[sp].[moe](A)p.[moe]([m5C])p.[moe](A)[sp].[moe](T)}$$$$ (last 3' nucleoside missing)”, the figure is 0 score 0-7; as for “RNA1{[moe](T)[sp].[moe](T)p.[moe](G)p.[moe](G)p.[moe](G)p.d(T)[sp].d([m5C])[sp].d(T)[sp].d([m5C])[sp].d(T)[sp].d(T)[sp].d(A)[sp].d(G)[sp].d([m5C])[sp].d(T)[sp].[moe](T)p.[moe](T)p.[moe]([m5C])[sp].[moe](T)}$$$$ (last 3' nucleoside missing)”, 2.67 score 0-7.
As for “RNA1{[moe](T)[sp].[moe]([m5C])p.[moe](T)p.[moe](G)p.[moe]([m5C])[sp].d(A)[sp].d(T)[sp].d(G)[sp].d(T)[sp].d(A)[sp].d(A)[sp].d([m5C])[sp].d([m5C])[sp].[moe](T)p.[moe](T)p.[moe](T)[sp].[moe](A)}$$$$ (last 3' nucleoside missing)”, the figure is 1 score 0-7.
“RNA1{[moe](A)[sp].[moe](T)p.[moe](G)p.[moe](G)p.[moe](T)p.d(T)[sp].d(G)[sp].d(G)[sp].d(A)[sp].d(A)[sp].d(A)[sp].d(T)[sp].d(A)[sp].d([m5C])[sp].d(A)[sp].[moe](G)p.[moe]([m5C])p.[moe](T)[sp].[moe](G)}$$$$ (last 3' nucleoside missing)” came in with a 3 h FOB score of 1 score 0-7.
As for “RNA1{[moe](T)[sp].[moe]([m5C])p.[moe](T)p.[moe](A)p.[moe](T)p.[moe](T)[sp].d(T)[sp].d(T)[sp].d(A)[sp].d(T)[sp].d(A)[sp].d(A)[sp].d(A)[sp].d(T)[sp].[moe](G)p.[moe]([m5C])[sp].[moe]([m5C])}$$$$ (last 3' nucleoside missing)”, the figure is 1 score 0-7.
As for “RNA1{[moe](A)[sp].[moe](T)p.[moe]([m5C])p.[moe](A)p.[moe](T)p.[moe](G)p.d([m5C])[sp].d(A)[sp].d(T)[sp].d(A)[sp].d(A)[sp].d(T)[sp].d([m5C])[sp].d([m5C])[sp].d([m5C])[sp].d(A)[sp].[moe](T)p.[moe](T)[sp].[moe](A)}$$$$ (last 3' nucleoside missing)”, the figure is 0 score 0-7.
As for “RNA1{[moe](T)[sp].[moe](G)p.[moe]([m5C])p.[moe](A)p.[moe](T)p.d(G)[sp].d(T)[sp].d(A)[sp].d(A)[sp].d([m5C])[sp].d([m5C])[sp].d(T)[sp].d(T)[sp].d(T)[sp].d(A)[sp].[moe](T)p.[moe](A)p.[moe]([m5C])[sp].[moe](A)}$$$$ (last 3' nucleoside missing)”, the figure is 1 score 0-7.
Take “RNA1{[moe](G)[sp].[moe](T)p.[moe]([m5C])p.[moe](T)p.[moe]([m5C])p.[moe](T)p.d(T)[sp].d(T)[sp].d([m5C])[sp].d(T)[sp].d(T)[sp].d(A)[sp].d(T)[sp].d(T)[sp].d(T)[sp].d([m5C])[sp].[moe](T)p.[moe](G)[sp].[moe](T)}$$$$ (last 3' nucleoside missing)”: the 3 h FOB score is 1 score 0-7.
In turn, “RNA1{[moe](A)[sp].[moe](A)p.[moe](T)p.[moe]([m5C])p.d(A)[sp].d([m5C])[sp].d(T)[sp].d(T)[sp].d(T)[sp].d([m5C])[sp].d(A)[sp].d(T)[sp].d([m5C])[sp].d([m5C])[sp].[moe](A)p.[moe]([m5C])p.[moe](G)p.[moe](A)[sp].[moe]([m5C])}$$$$ (last 3' nucleoside missing)” returned a 3 h FOB score of 0.33 score 0-7.
As for “RNA1{[moe](G)[sp].[moe](A)p.[moe]([m5C])p.[moe]([m5C])p.d(A)[sp].d([m5C])[sp].d(G)[sp].d([m5C])[sp].d(T)[sp].d(T)[sp].d(A)[sp].d([m5C])[sp].d(A)[sp].d(T)[sp].[moe]([m5C])p.[moe](A)p.[moe](A)p.[moe](A)[sp].[moe]([m5C])}$$$$ (last 3' nucleoside missing)”, the figure is 4 score 0-7; as for “RNA1{[moe](A)[sp].[moe](G)p.[moe]([m5C])p.[moe](A)p.d(T)[sp].d(G)[sp].d(T)[sp].d(T)[sp].d(T)[sp].d(A)[sp].d(T)[sp].d([m5C])[sp].d(T)[sp].d(T)[sp].[moe](A)p.[moe](G)p.[moe](T)p.[moe](T)[sp].[moe]([m5C])}$$$$ (last 3' nucleoside missing)”, 0 score 0-7; as for “RNA1{[moe](A)[sp].[moe](A)p.[moe](T)p.[moe](T)p.[moe]([m5C])p.[moe](T)p.d(A)[sp].d(T)[sp].d(T)[sp].d(T)[sp].d(T)[sp].d(A)[sp].d(T)[sp].d(A)[sp].d(A)[sp].d(A)[sp].[moe](T)p.[moe](G)[sp].[moe]([m5C])}$$$$ (last 3' nucleoside missing)”, 0.33 score 0-7.
The substance “RNA1{[moe](G)[sp].[moe](A)p.[moe]([m5C])p.[moe]([m5C])p.d(G)[sp].d(A)[sp].d(A)[sp].d(T)[sp].d(T)[sp].d([m5C])[sp].d(T)[sp].d(A)[sp].d(T)[sp].d(T)[sp].[moe](T)p.[moe](T)p.[moe](A)p.[moe](T)[sp].[moe](A)}$$$$ (last 3' nucleoside missing)” yielded a 3 h FOB score of 0 score 0-7.
As for “RNA1{[moe](T)[sp].[moe](T)p.[moe]([m5C])p.[moe](T)p.[moe](A)p.d(T)[sp].d(T)[sp].d(T)[sp].d(T)[sp].d(A)[sp].d(T)[sp].d(A)[sp].d(A)[sp].d(A)[sp].d(T)[sp].[moe](G)p.[moe]([m5C])p.[moe]([m5C])[sp].[moe](G)}$$$$ (last 3' nucleoside missing)”, the figure is 0 score 0-7; as for “RNA1{[moe](A)[sp].[moe]([m5C])p.[moe](A)p.[moe](T)p.d(A)[sp].d(T)[sp].d(T)[sp].d(T)[sp].d(T)[sp].d(T)[sp].d([m5C])[sp].d(T)[sp].d(A)[sp].d([m5C])[sp].[moe](A)p.[moe]([m5C])p.[moe](T)p.[moe](G)[sp].[moe]([m5C])}$$$$ (last 3' nucleoside missing)”, 0.33 score 0-7.
As for “RNA1{[moe]([m5C])[sp].[moe](G)p.[moe](T)p.[moe]([m5C])p.d(T)[sp].d([m5C])[sp].d(T)[sp].d(T)[sp].d(T)[sp].d([m5C])[sp].d(T)[sp].d(T)[sp].d(A)[sp].d(T)[sp].[moe](T)p.[moe](T)p.[moe]([m5C])p.[moe](T)[sp].[moe](G)}$$$$ (last 3' nucleoside missing)”, the figure is 1 score 0-7; as for “RNA1{[moe]([m5C])[sp].[moe](A)p.[moe](G)p.[moe]([m5C])p.[moe](A)p.[moe](T)p.d(G)[sp].d(T)[sp].d(T)[sp].d(T)[sp].d(A)[sp].d(T)[sp].d([m5C])[sp].d(T)[sp].d(T)[sp].d(A)[sp].[moe](G)p.[moe](T)[sp].[moe](T)}$$$$ (last 3' nucleoside missing)”, 0 score 0-7.
As for “RNA1{[moe](A)[sp].[moe]([m5C])p.[moe]([m5C])p.[moe](G)p.[moe](A)p.d(A)[sp].d(T)[sp].d(T)[sp].d([m5C])[sp].d(T)[sp].d(A)[sp].d(T)[sp].d(T)[sp].d(T)[sp].d(T)[sp].[moe](A)p.[moe](T)p.[moe](A)[sp].[moe](A)}$$$$ (last 3' nucleoside missing)”, the figure is 1.67 score 0-7.
Substance “RNA1{[moe](A)[sp].[moe](A)p.[moe](T)p.[moe](T)p.[moe]([m5C])p.d(T)[sp].d(A)[sp].d(T)[sp].d(T)[sp].d(T)[sp].d(T)[sp].d(A)[sp].d(T)[sp].d(A)[sp].d(A)[sp].[moe](A)p.[moe](T)p.[moe](G)[sp].[moe]([m5C])}$$$$ (last 3' nucleoside missing)” had a 3 h FOB score of 0 score 0-7.
As for “RNA1{[moe](A)[sp].[moe](G)p.[moe]([m5C])p.[moe](A)p.[moe](T)p.[moe](G)p.d(T)[sp].d(T)[sp].d(T)[sp].d(A)[sp].d(T)[sp].d([m5C])[sp].d(T)[sp].d(T)[sp].d(A)[sp].d(G)[sp].[moe](T)p.[moe](T)[sp].[moe]([m5C])}$$$$ (last 3' nucleoside missing)”, the figure is 1 score 0-7.
As for “RNA1{[moe]([m5C])[sp].[moe]([m5C])p.[moe](A)p.[moe](T)p.d(T)[sp].d(T)[sp].d([m5C])[sp].d(T)[sp].d(A)[sp].d(T)[sp].d(A)[sp].d(A)[sp].d([m5C])[sp].d(T)[sp].[moe]([m5C])p.[moe](A)p.[moe](G)p.[moe]([m5C])[sp].[moe](A)}$$$$ (last 3' nucleoside missing)”, the figure is 0 score 0-7.
In the case of “RNA1{[moe]([m5C])[sp].[moe](T)p.[moe]([m5C])p.[moe](T)p.[moe](T)p.[moe](T)p.d([m5C])[sp].d(T)[sp].d(T)[sp].d(A)[sp].d(T)[sp].d(T)[sp].d(T)[sp].d([m5C])[sp].d(T)[sp].d(G)[sp].[moe](T)p.[moe](T)[sp].[moe](T)}$$$$ (last 3' nucleoside missing)”, the 3 h FOB score was determined as 1 score 0-7.
As for “RNA1{[moe](T)[sp].[moe]([m5C])p.[moe]([m5C])p.[moe](A)p.[moe]([m5C])p.d(G)[sp].d(A)[sp].d([m5C])[sp].d(A)[sp].d(T)[sp].d(A)[sp].d(T)[sp].d(T)[sp].d(T)[sp].d(T)[sp].[moe](T)p.[moe]([m5C])p.[moe](T)[sp].[moe](A)}$$$$ (last 3' nucleoside missing)”, the figure is 1.33 score 0-7; as for “RNA1{[moe](G)[sp].[moe](A)p.[moe](A)p.[moe](T)p.[moe](T)p.[moe]([m5C])p.d(T)[sp].d(A)[sp].d(T)[sp].d(T)[sp].d(T)[sp].d(T)[sp].d(A)[sp].d(T)[sp].d(A)[sp].d(A)[sp].[moe](A)p.[moe](T)[sp].[moe](G)}$$$$ (last 3' nucleoside missing)”, 1 score 0-7.
As for “RNA1{[moe]([m5C])[sp].[moe](A)p.[moe](G)p.[moe]([m5C])p.d(A)[sp].d(T)[sp].d(G)[sp].d(T)[sp].d(T)[sp].d(T)[sp].d(A)[sp].d(T)[sp].d([m5C])[sp].d(T)[sp].[moe](T)p.[moe](A)p.[moe](G)p.[moe](T)[sp].[moe](T)}$$$$ (last 3' nucleoside missing)”, the figure is 0 score 0-7.

The values above are taken from the OligoGym collection.
